In test [1] the target is T1, cloned human δ opioid receptor (Homo sapiens, UniProt P41143).
T1 construct: expressed in transfected cells
As to the kind of experiment: In vitro binding assay, inhibition of [3H]diprenorphine binding, delta. As to conditions: kappa versus δ. As for the experimental part: (§1) The potencies of the compounds of the invention were determined by testing the ability of a range of concentrations of each compound to inhibit the binding of the non-selective opioid antagonist, [^3H]diprenorphine, to the cloned human μ, κ, and δ opioid receptors, expressed in separate cell lines. IC50 values were obtained by nonlinear analysis of the data using GraphPad Prism version 3.00 for Windows (GraphPad Software, San Diego). Ki values were obtained by Cheng-Prusoff corrections of IC50 values.
(§2) The receptor binding method was a modification of the method of K. Raynor et al. (Mol. Pharmnacol. 1994, 45, 330-334). […] The filters were rinsed 4 times with 1 mL of cold 50 mM Tris HCl, pH 7.8 and radioactivity remaining on the filters determined by scintillation spectroscopy. Nonspecific binding was determined by the minimum values of the titration curves and was confirmed by separate assay wells containing 10 μM naloxone. Ki values were determined by Cheng-Prusoff corrections of IC50 values derived from nonlinear regression fits of 12 point titration curves using GraphPad Prism® version 3.00 for Windows (GraphPad Software, San Diego, Calif.).
(§3) To determine the equilibrium dissociation constant for the inhibitors (Ki), radioligand bound (cpm) in the presence of various concentrations of test compounds was measured. […]

The target in another test is T2, cloned human a receptors (Homo sapiens, UniProt P41145).
T2 construct: expressed in transfected cells
T2 sequence (P41145 whole entry): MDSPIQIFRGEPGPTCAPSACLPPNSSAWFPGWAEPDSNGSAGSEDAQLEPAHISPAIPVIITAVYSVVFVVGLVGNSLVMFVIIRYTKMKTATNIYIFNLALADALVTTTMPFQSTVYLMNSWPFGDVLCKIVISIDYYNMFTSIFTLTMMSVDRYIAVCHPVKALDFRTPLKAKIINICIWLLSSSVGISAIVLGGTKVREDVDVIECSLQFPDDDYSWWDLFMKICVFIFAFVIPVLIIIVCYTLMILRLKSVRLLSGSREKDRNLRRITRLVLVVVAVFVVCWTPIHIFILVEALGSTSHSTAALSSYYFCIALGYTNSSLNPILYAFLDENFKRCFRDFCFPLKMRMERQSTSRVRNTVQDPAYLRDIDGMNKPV
As to the kind of experiment: Stimulation of [35S]GTPγS binding to membranes (agonist potency). Type of test: biochemical. The protocol:
The potencies of the agonists were assessed by their abilities to stimulate [^35S]GTPγS binding to membranes containing the cloned human a receptors.
To determine the EC50 value, which was the concentration to give half-maximal stimulation of [^35S]GTPγS binding, the amount of [^35S]GTPγS bound in the presence of various concentrations of agonists was measured. The EC50 value was then determined.

The target in test [2] is T3, cloned human κ opioid receptor (Homo sapiens, UniProt P41145).
T3 construct: expressed in transfected cells
T3 sequence (P41145 whole entry): as above
As to the kind of experiment: In vitro binding assay, inhibition of [3H]diprenorphine binding, kappa. As to conditions: read-out: Ki against the human kappa receptor. As for the experimental part: as §1, §2, §3

For test [3], the target named is T4, cloned human μ opioid receptor (Homo sapiens, UniProt P35372).
T4 construct: expressed in transfected cells
T4 sequence (P35372 whole entry): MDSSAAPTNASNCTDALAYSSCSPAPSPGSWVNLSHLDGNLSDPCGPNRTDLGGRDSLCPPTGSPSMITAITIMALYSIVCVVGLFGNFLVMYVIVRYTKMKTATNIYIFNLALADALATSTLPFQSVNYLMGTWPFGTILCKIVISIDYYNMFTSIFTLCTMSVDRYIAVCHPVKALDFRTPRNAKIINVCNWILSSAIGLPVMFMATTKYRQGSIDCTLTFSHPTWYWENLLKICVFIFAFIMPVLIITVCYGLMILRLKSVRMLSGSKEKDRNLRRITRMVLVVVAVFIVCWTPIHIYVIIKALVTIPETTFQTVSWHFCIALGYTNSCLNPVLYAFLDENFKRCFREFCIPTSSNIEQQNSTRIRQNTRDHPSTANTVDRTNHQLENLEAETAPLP
As to the kind of experiment: In vitro binding assay, inhibition of [3H]diprenorphine binding, mu. The conditions noted are these: kappa versus μ. The protocol: as §1, §2, §3

Test [4] deals with formalin-induced flinching. As to the kind of experiment: In vivo formalin-induced nociception assay. The arrangement: species or system male Sprague-Dawley rats. As to conditions: dose of 100 μg, i.paw. The source says: Administration of formalin into the paw results in a localized inflammation and a pain response that is moderate in intensity and continuous in duration. Unlike many other assays of nociception, the formalin assay measures tonic pain that is a result of tissue injury, and therefore is a model which is more relevant to clinical pain states in humans (see Tjolsen et al., Pain 51: 5-17, 1992). In the rat the response to formalin-induced pain consists of spontaneous flinching behavior, characterized by paw lifting and paw shaking, and a rapid vibration of the paw after drawing it under the body. […] The early or acute phase lasts from 0-5 minutes post-formalin and is followed by a quiescent period lasting approximately 15 minutes. The tonic phase occurs from 20-35 minutes following formalin injection and is the interval where the number of flinching responses is maximal. […]
Inflammation is induced by subcutaneous injection of […] of a 5% formalin solution into the dorsal surface of the right hind paw of male Sprague-Dawley rats weighing 70-90 g. Injections of drug are given into the dorsal surface of the paw prior to formalin injection, and flinching behavior is quantitated by counting the number of responses that occur during the tonic phase of pain, lasting from 20-35 min after formalin injection. […]

In test [5] the test system is acetic acid-induced writhing. As to the kind of experiment: Acetic acid-induced writhing. Type of test: in vivo, male CF-1 mice. The conditions noted are these: Mus musculus, po; administered orally; read-out: ED50, block of acetic acid-induced writhing. The protocol: Injection of acetic acid into the peritoneal cavity is used as the noxious stimulus, and the number of writhing responses that occur in response to acetic acid are counted in order to quantif the response to pain.
The writhing assay is adapted from the procedure originally described by Taber et al. (J. Pharmacol. Exp. Ther. 169: 29-38,1986), using male CF-1 mice weighing 20-25 g. Animals are treated with various doses of drugs prior to the administration of an i.p. injection of 0.6% acetic acid solution. Mice are then placed into observation chambers and the number of writhing responses, as defined by a full hind limb extension and retraction, are recorded.
The mean number of writhing responses is calculated for vehicle-treated control mice, and the percent inhibition (% I) of writhing is calculated for each mouse that is treated with drug using the following formula: % I=100×(mean control writhing responses−individual test responses)(mean control writhing responses) (f) Hyperalgesia Induced by Tape Stripping

The structures appear in SMILES notation.

T1 sequence (P41143 whole entry): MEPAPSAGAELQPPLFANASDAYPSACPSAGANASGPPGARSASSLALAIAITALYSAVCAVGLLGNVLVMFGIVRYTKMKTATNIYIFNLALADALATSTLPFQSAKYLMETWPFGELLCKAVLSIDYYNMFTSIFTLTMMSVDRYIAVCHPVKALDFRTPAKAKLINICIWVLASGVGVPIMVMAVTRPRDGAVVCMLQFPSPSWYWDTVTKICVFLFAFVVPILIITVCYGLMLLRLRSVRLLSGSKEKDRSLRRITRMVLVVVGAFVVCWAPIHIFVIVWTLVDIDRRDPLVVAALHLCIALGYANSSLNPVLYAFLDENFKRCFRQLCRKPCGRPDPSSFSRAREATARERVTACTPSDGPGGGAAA

On to `O=C1C(c2ccc(Cl)c(Cl)c2)CC=CCN1[C@H](CN1CCCC1)c1ccccc1` (stereo partly drawn) [Example 9, 3-(3,4-Dichloro-phenyl)-1-(1-(S)-phenyl-2-pyrrolidin-1-yl-ethyl)-1,3,4,7-tetrahydro-azepin-2-one], for which the “selectivity versus the human δ receptor” value in test [1] is more than 100 ×. Also, the concentration giving a half-maximal response (EC50) on cloned human a receptors stood at 2.5 nM. The inhibition constant (Ki) in test [2] amounted to 1 nM. In test [3], the “selectivity versus the human μ receptor” value is more than 100 ×. For the same compound, in test [4], the “% A (percent antagonism of formalin-induced flinching)” value is more than 80%. Further, in test [5], the 50% effective dose (ED50) is less than 30 mg/kg.
